We go through 3 compounds from US12116388B2, “Amylin receptor agonists” (Novo Nordisk A/S, priority 2022, dated 2024).

The structures appear in SMILES notation. Starred links: 1 amine or outer side, 2 acyl side, 3 side chain; linkers in the order of their positions; H or OH if unused. Residues, ends and D or L forms follow the SMILES beside them. *: point of attachment. C20 diacid = O=C(O)CCCCCCCCCCCCCCCCCCC(=O)*; C18 diacid = O=C(O)CCCCCCCCCCCCCCCCC(=O)*; γGlu = O=C(O)[C@H](CCC(=O)[*:2])N[*:1]

Assay [1] concerns the target T1, human calcitonin receptor (hCTR) (Homo sapiens, UniProt P30988).
T1 construct: host or cells: BHK (Baby Hamster Kidney), Hollex-1 cell line
T1 sequence (P30988 25-474): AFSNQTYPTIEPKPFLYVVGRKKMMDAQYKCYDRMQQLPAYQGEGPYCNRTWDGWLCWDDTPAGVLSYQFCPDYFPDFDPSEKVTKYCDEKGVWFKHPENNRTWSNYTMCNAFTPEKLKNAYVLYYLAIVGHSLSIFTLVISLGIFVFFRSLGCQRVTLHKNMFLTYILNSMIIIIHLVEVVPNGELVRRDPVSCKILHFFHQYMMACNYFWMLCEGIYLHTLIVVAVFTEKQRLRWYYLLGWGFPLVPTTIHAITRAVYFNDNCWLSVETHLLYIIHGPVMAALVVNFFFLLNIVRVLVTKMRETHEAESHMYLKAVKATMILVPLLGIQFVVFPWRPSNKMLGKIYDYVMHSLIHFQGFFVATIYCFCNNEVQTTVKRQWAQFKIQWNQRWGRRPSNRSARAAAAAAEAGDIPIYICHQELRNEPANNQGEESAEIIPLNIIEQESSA
Briefly: Human calcitonin receptor (hCTR) in vitro potency assay, CRE-luciferase reporter in BHK cells. Type of assay: cell-based. Conditions: BHK hCTR/CRE-Luc cells, 3 hours incubation, assay buffer with 1% ovalbumin; read-out: hCalcR potency, EC50. From the text:
Activation of hCTR leads to increased cellular concentrations of CAMP. Consequently, transcription is activated by promotors containing multiple copies of the CAMP response element (CRE). It is thus possible to measure hCTR activity using a CRE-luciferase reporter gene introduced into Baby Hamster Kidney (BHK) cells co-expressing the hCTR.
A BHK cell line was stably transfected with the human calcitonin receptor (a) and a CRE-responsive luciferase (CRE-Luc) reporter gene according to methods known to the person skilled in the art (Hollex-1 cell line, obtained from Zymogenetics described in U.S. Pat. No. 5,622,839).
(§1) Cells stocks were prepared by culturing of the stably transfected BHK hCTR/CRE-Luc cell line in growth medium consisting of DMEM (Gibco, 31966-021) supplemented with 10% FBS (Gibco, 16140-071), 1% Pen/Strep (Gibco, 15140-122), 0.5 mg/mL Geneticin (Gibco, 10131-027) and 250 nM Methotrexate (Sigma, A6770). Cells at approximately 80-90% confluence were washed once with PBS (Gibco 14190-094) and loosened from the cell flasks with Versene (Gibco, 15040-033) or TrypLE™ (Gibco, 12605-010). After centrifugation, the cell pellet was dissolved and diluted to approximately 2.5×10E6 cells/mL in Recovery™ Cell Culture Freezing Medium (Gibco, 12648-010). Cells were aliquoted and stored at −180° C. until use.
(§2) The assay buffer consisted of DMEM without phenol red (Gibco, 11880-028) supplemented with 1× GlutaMAX (Gibco, 35050-038), 10 mM HEPES (Gibco, 15630-056) and 1% (w/v) ovalbumin (Sigma, A5503).
(§3) To perform the assay, BHK hCTR/CRE-Luc cells were thawed, washed once in PBS and seeded in 40 μL growth medium in a white 384-well culture plate (PerkinElmer, 6007688) at a cell density of 4.000 cells/well on the day before the experiment. The plate was incubated over night at 37° C. in 5% CO2. On the day of the assay, cells were washed once in assay buffer. Serial dilutions (7-fold dilutions, 7 concentrations Pr. compound and one well containing only assay buffer) of comparator compounds and amylin analogues were performed in assay buffer often starting from approximately 10 nM in 96-well plates and 30 μL of each concentration added to the 384-well assay plate with cells. The assay plate was incubated for 3 hours at 37° C. in 5% CO2 after which 30 μL SteadyLite Plus (PerkinElmer, 6066759) was added to each well. The assay plate was sealed, incubated at room temperature with gentle shaking for 5 minutes followed by 30 minutes incubation without shaking while protected from light. Luminescence was detected on a luminescence plate reader e.g. a Synergy 2 (BioTek).

Assay [2] deals with T2, human amylin receptor (hAMYR3) (Homo sapiens, UniProt O60896+P30988).
T2 construct: host or cells: BHK (Baby Hamster Kidney), Hollex-1 cell line further transfected with RAMP3
T2 sequence (O60896 24-148, one chain of several): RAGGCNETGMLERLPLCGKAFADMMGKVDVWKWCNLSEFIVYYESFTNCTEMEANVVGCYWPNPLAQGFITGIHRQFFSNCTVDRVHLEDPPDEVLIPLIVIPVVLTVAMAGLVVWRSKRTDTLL
Description: Human amylin receptor (hAMYR3) in vitro potency assay, CRE-luciferase reporter in BHK cells. It is filed as cell-based. The following applies: BHK hAMYR3/CRE-Luc cells, 3 hours incubation, assay buffer with 1% ovalbumin.
From the text: Activation of hAMYR3 leads to increased cellular concentrations of cAMP. Consequently, transcription is activated by promotors containing multiple copies of the CAMP response element (CRE). It is thus possible to measure hAMYR3 activity using a CRE-luciferase reporter gene introduced into Baby Hamster Kidney (BHK) cells co-expressing the hAMYR3.
A BHK cell line was stably transfected with the human calcitonin receptor (a) and a CRE-responsive luciferase (CRE-Luc) reporter gene according to methods known to the person skilled in the art (Hollex-1 cell line, obtained from Zymogenetics described in U.S. Pat. No. 5,622,839). The cell line was further transfected with human receptor modifying protein 3 (RAMP3) using standard methods. This turns the human calcitonin receptor into a human amylin-3(a) receptor.
as §1, with “hAMYR3/CRE-Luc” for “hCTR/CRE-Luc”, “10131-027), 0.4 mg/mL Hygromycin (Invitrogen, 10687010)” for “10131-027)”
as §2
as §3, with “hAMYR3/CRE-Luc” for “hCTR/CRE-Luc”

For orientation: EC50 means the concentration giving half of the maximal effect. Turning to `CC[C@H](C)[C@H](NC(=O)[C@H](C)NC(=O)CNC(=O)[C@H](Cc1ccccc1)NC(=O)[C@@H]1CCCN1C(=O)[C@H](CC(=O)O)NC(=O)[C@H](CO)NC(=O)[C@H](CO)NC(=O)[C@H](Cc1c[nH]cn1)NC(=O)[C@H](Cc1c[nH]cn1)NC(=O)[C@H](CC(C)C)NC(=O)[C@H](Cc1ccccc1)NC(=O)[C@H](CCC(=O)O)NC(=O)[C@H](C)NC(=O)[C@H](CC(C)C)NC(=O)[C@H](CCCNC(=N)N)NC(=O)[C@H](CCC(N)=O)NC(=O)[C@@H](NC(=O)[C@H](CCC(N)=O)NC(=O)[C@H](C)NC(=O)[C@@H](NC(=O)[C@H](CO)NC(=O)[C@H](CC(C)C)NC(=O)[C@H](Cc1c[nH]cn1)NC(=O)CNC(=O)[C@H](C)NC(=O)CC[C@H](NC(=O)CCCCCCCCCCCCCCCCCCC(=O)O)C(=O)O)[C@@H](C)O)[C@@H](C)O)C(=O)N1CCC[C@H]1C(=O)N[C@@H](CO)C(=O)N[C@@H](CO)C(=O)N[C@H](C(=O)N[C@@H](CC(=O)O)C(=O)N[C@H](C(=O)NCC(=O)N1CCC[C@H]1C(=O)N[C@@H](CC(=O)O)C(=O)N[C@H](C(=O)N1CCC[C@H]1C(N)=O)[C@@H](C)O)C(C)C)[C@@H](C)O` [Compound 7, N^1-[(4S)-4-carboxy-4-(19-carboxynonadecanoylamino)butanoyl]-[Ala1,Gly2,His3,Leu4,Ser5,Ala7,Gln8,Glu14,His17,Asp21,Pro22,Pro27,Asp31,Pro34,Asp35,Pro37]-human amylin] ({C20 diacid-γGlu}-AGHLSTAQTQRLAEFLHHSSDPFGAIPSSTDVGPDTP-NH2), the EC50 in assay [1] is 1.81 pM; in assay [2] it was 1.68 pM.

Turning to `CC[C@H](C)[C@H](NC(=O)[C@H](C)NC(=O)CNC(=O)[C@H](Cc1ccccc1)NC(=O)[C@@H]1CCCN1C(=O)[C@H](CC(=O)O)NC(=O)[C@H](CO)NC(=O)[C@H](CO)NC(=O)[C@H](Cc1c[nH]cn1)NC(=O)[C@H](Cc1c[nH]cn1)NC(=O)[C@H](CC(C)C)NC(=O)[C@H](Cc1ccccc1)NC(=O)[C@H](CCC(=O)O)NC(=O)[C@H](C)NC(=O)[C@H](CC(C)C)NC(=O)[C@H](CCCNC(=N)N)NC(=O)[C@H](CCC(N)=O)NC(=O)[C@@H](NC(=O)[C@H](CCC(N)=O)NC(=O)[C@H](C)NC(=O)[C@@H](NC(=O)[C@H](CO)NC(=O)[C@H](CC(C)C)NC(=O)[C@H](Cc1c[nH]cn1)NC(=O)[C@H](CO)NC(=O)[C@H](C)NC(=O)CC[C@H](NC(=O)CC[C@H](NC(=O)CCCCCCCCCCCCCCCCC(=O)O)C(=O)O)C(=O)O)[C@@H](C)O)[C@@H](C)O)C(=O)N1CCC[C@H]1C(=O)N[C@@H](CO)C(=O)N[C@@H](CO)C(=O)N[C@H](C(=O)N[C@@H](CC(=O)O)C(=O)N[C@H](C(=O)NCC(=O)N1CCC[C@H]1C(=O)N[C@@H](CC(=O)O)C(=O)N[C@H](C(=O)N1CCC[C@H]1C(N)=O)[C@@H](C)O)C(C)C)[C@@H](C)O` [Compound 9, N^1-[(4S)-4-carboxy-4-[[(4S)-4-carboxy-4-(17-carboxyheptadecanoylamino)butanoyl]amino]butanoyl]-[Ala1,Ser2,His3,Leu4,Ser5,Ala7,Gln8,Glu14,His17,Asp21,Pro22,Pro27,Asp31,Pro34,Asp35,Pro37]-human amylin] ({C18 diacid-γGlu-γGlu}-ASHLSTAQTQRLAEFLHHSSDPFGAIPSSTDVGPDTP-NH2), the concentration for a half-maximal effect (EC50) in assay [1] is 1.68 pM; in assay [2], 2.18 pM.

With `CC[C@H](C)[C@H](NC(=O)[C@H](C)NC(=O)CNC(=O)[C@H](Cc1ccccc1)NC(=O)[C@@H]1CCCN1C(=O)[C@H](CC(=O)O)NC(=O)[C@H](CO)NC(=O)[C@H](CO)NC(=O)[C@H](Cc1c[nH]cn1)NC(=O)[C@H](Cc1c[nH]cn1)NC(=O)[C@H](CC(C)C)NC(=O)[C@H](Cc1ccccc1)NC(=O)[C@H](CCC(=O)O)NC(=O)[C@H](C)NC(=O)[C@H](CC(C)C)NC(=O)[C@H](CCCNC(=N)N)NC(=O)[C@H](CCC(N)=O)NC(=O)[C@@H](NC(=O)[C@H](CCC(N)=O)NC(=O)[C@H](C)NC(=O)[C@@H](NC(=O)[C@H](CO)NC(=O)[C@H](CC(C)C)NC(=O)[C@H](CCC(=O)O)NC(=O)CNC(=O)[C@H](C)NC(=O)CC[C@H](NC(=O)CCCCCCCCCCCCCCCCC(=O)O)C(=O)O)[C@@H](C)O)[C@@H](C)O)C(=O)N1CCC[C@H]1C(=O)N[C@@H](CO)C(=O)N[C@@H](CO)C(=O)N[C@H](C(=O)N[C@@H](CC(=O)O)C(=O)N[C@H](C(=O)NCC(=O)N1CCC[C@H]1C(=O)N[C@@H](CC(=O)O)C(=O)N[C@H](C(=O)N1CCC[C@H]1C(N)=O)[C@@H](C)O)C(C)C)[C@@H](C)O` [Compound 11, N^1-[(4S)-4-carboxy-4-(17-carboxyheptadecanoylamino)butanoyl]-[Ala1,Gly2,Glu3,Leu4,Ser5,Ala7,Gln8,Glu14,His17,Asp21,Pro22,Pro27,Asp31,Pro34,Asp35,Pro37]-human amylin] ({C18 diacid-γGlu}-AGELSTAQTQRLAEFLHHSSDPFGAIPSSTDVGPDTP-NH2), the EC50 is 1.58 pM in assay [1] and 2.43 pM in assay [2].
